The text below walks through data of patent US20250025438A1, “Derivative of aspartic acid and use thereof in treatment of metabolic diseases such as hepatic fibrosis and non-alcoholic hepatitis” (SHENZHEN JINGTAI TECHNOLOGY CO., LTD., priority 2021, published 2025).

Counter-ions that a name gives are not always drawn.

What all share (format): cell-based
The subject of one assay is TNF-α. As to the kind of experiment: In vitro efficacy in semi-activated LX2 cells, qPCR: TNF-α. The following applies: Homo sapiens, 48 hours, Q-PCR, read-out: TNF-α mRNA inhibition rate. On the technique in general: Real-time PCR tracks product formation cycle by cycle.
In the next assay the test system is COL3A1. The assay can be described thus: In vitro efficacy in semi-activated LX2 cells, qPCR: COL3A1. The following applies: Homo sapiens, 48 hours, Q-PCR, read-out: COL3A1 mRNA inhibition rate.
Another assay deals with Smad3. As to the kind of experiment: In vitro efficacy in semi-activated LX2 cells, qPCR: Smad3. Conditions: Homo sapiens, 48 hours, Q-PCR, read-out: Smad3 mRNA inhibition rate. The method, boiled down: (§1)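 Plate LX2 cells; after 12 h adherence add compound (50 µM); harvest at 48 h; extract total RNA on ice; make cDNA; run SYBR Green Q-PCR, check amplification and melt curves, analyse by relative quantification.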

The subject of a further assay is COL1A1. The assay can be described thus: In vitro efficacy in semi-activated LX2 cells, qPCR: COL1A1. The following applies: Homo sapiens, 48 hours, Q-PCR, read-out: COL1A1 mRNA inhibition rate.
In another assay the test system is COL1A2. As to the kind of experiment: In vitro efficacy in semi-activated LX2 cells, qPCR: COL1A2. Conditions: Homo sapiens, 48 hours, Q-PCR, read-out: COL1A2 mRNA inhibition rate.
The test system of a further assay is IL-1β. As to the kind of experiment: In vitro efficacy in semi-activated LX2 cells, qPCR: IL-1β. The following applies: Homo sapiens, 48 hours, Q-PCR, read-out: IL-1β mRNA inhibition rate.
Assay [1] concerns α-SMA. As to the kind of experiment: In vitro efficacy in semi-activated LX2 cells, qPCR: α-SMA. Conditions: test concentration 25 μM, 48 hours, Q-PCR, read-out: α-SMA mRNA inhibition rate. In short, it runs like this:
as §1

A further assay relates to NS3TP1. As to the kind of experiment: Regulation of NS3TP1 in semi-activated LX2 cells, qPCR. Conditions: LX-2 cells, 48 hours, Q-PCR, vs control group. The procedure:
Test compounds were added to the LX-2 cells respectively, and total RNA in the cells was extracted 48 hours later. This experiment was performed strictly in accordance with the instructions of the Total RNA Kit. The steps were as follows (note: this experiment was performed on ice throughout the entire process, and special RNase-free tips were used throughout the entire process): • 1) The 12-well cell culture plate was taken out from the incubator, the cell culture medium was discarded, the cells were washed twice with 1 mL of 1×PBS, and a negative pressure suction device was used to fully remove PBS; • 2) 350 μL of TRK Lysis Buffer mixture/well was prepared as needed (mixture preparation method: 1 mL of TRKLysis Buffer+20 μL of β-mercaptoethanol), vortexed and mixed well. 350 μL was added to each well of the 12-well cell culture plate, and allowed to stand at room temperature for 5 minutes to fully lyse the cells; • 3) 70% ethanol/well was prepared as needed, vortexed and mixed well. 350 μL was added to each well of the 12-well cell culture plate, mixed well by shaking, and transferred to the spin column (spin column+collection tube were assembled); • 4) Centrifugation was performed at 4° C., 12000 g for 60 sec. The waste liquid was discarded after centrifugation, while the spin column was kept; • 5) 500 μL of RNA Wash Buffer I was added, centrifuged at 4° C., 12000 g for 60 sec, the waste liquid was discarded after centrifugation, and the collection column was kept; • 6) 500 μL of RNA Wash Buffer II (confirmed that ethanol had been added) was added, centrifuged at 4° C., 12000 g for 60 sec, the waste liquid was discarded after centrifugation, and the collection column was kept; • 7) step 6) was repeated once again, centrifugation was performed at 4° C., 12000 g for 90 sec, the waste liquid was discarded after centrifugation, and the collection column was kept; • 8) Centrifugation was performed at 4° C., 12000 g for 120 sec to ensure that the spin column was fully dried; • 9) The dried spin column was inserted into a new 1.5 mL EP tube, and 30 μL of DEPC water was added to the membrane in the center of the spin column. It should be careful not to touch the EP tube cover in this step. It was allowed to stand at room temperature for 5 minutes to ensure that the RNA was fully dissolved in DEPC water. Centrifugation was performed at 4° C., 12000 g for 60 sec, and the EP tube was kept; • 10) NanoDrop ultra-micro-volume spectrophotometer was used to detect RNA concentration;
5.2 Reverse transcription of RNA into cDNA: According to the instructions of PrimeScript™ RT reagent Kit (Perfect Real Time), the specific experimental steps were as follows:
5.3 Q-PCR detection of target gene expression: According to the instructions of Power SYBR® Green PCR Master Mix, the specific operations were as follows:
After the reaction was completed, the amplification curve and dissolution curve of Q-PCR were confirmed, and the relative quantification method ([…]) was used to perform data analysis on the experimental results.
LX2 cells were passaged and plated normally. […] After 48 hours, the cells were collected, total RNA was extracted, and the expression of NS3TP1 gene was detected using Q-PCR method.

For assay [2], the system named is α-SMA. The assay can be described thus: Activated LX2 cells (TGFβ1), Western blot: α-SMA. The following applies: LX2 cells stimulated with TGFβ1 (5 ng/mL), 24 hours, FIG. 4.
The subject of another assay is collagen I. As to the kind of experiment: Activated LX2 cells (TGFβ1), Western blot: Collagen I. Conditions: LX2 cells stimulated with TGFβ1 (5 ng/mL), 24 hours, FIG. 4.
The mark [3] stands for this setting: LX-2, test concentration 12.5 μM.

As to `CN[C@@H](CC(=O)O)C(=O)O` [Compound 3], the inhibition at 12.5 µM in the assay on TNF-α (setting [3]) lay in the range of 1 to 10%; in the assay on COL3A1 (setting [3]), 1 to 10%; with Smad3 (setting [3]) it was 1 to 10%; in the assay with COL1A1 (setting [3]) it was 25 to 50%; in the assay on COL1A2 (setting [3]) it was 1 to 10%; with IL-1β (setting [3]) it was 1 to 10%.
Turning to `C[S+]([O-])C[C@H](N)C(=O)O` (stereo partly shown) [Compound 45], the inhibition at 25 µM with TNF-α (LX-2, test concentration 25 μM) is 1 to 10%; in the assay on COL3A1 (LX-2, test concentration 25 μM), 1 to 10%; with Smad3 (LX-2, test concentration 25 μM), 1 to 10%; in the assay with COL1A1 (LX-2, test concentration 25 μM) it was 1 to 10%; with α-SMA [1], 1 to 10%; in the assay with COL1A2 (LX-2, test concentration 25 μM) it was 1 to 10%. For the same compound, the inhibition at 25 µM in the assay with IL-1β (LX-2, test concentration 25 μM) lay within 1 to 10%.
As for `COC(=O)C[C@H](N)C(=O)OCCOC(=O)[C@@H](N)CC(=O)OC` [Compound 77a, O′1,O1-(ethan-1,2-diyl)4-dimethyl (2S,2'S)-bis (2-aminosuccinate) hydrochloride], in the assay on NS3TP1 (200 µM compound), the “Up-regulation of NS3TP1” value is given as “C (C represented that the up-regulation was 1~20%)”. Besides, the “expression of α-SMA in the cells” value with α-SMA [2] is given as “significantly decreased”. Besides, the “expression of Collagen I in the cells” value with collagen I was “significantly decreased”.
Take `COC(=O)C[C@H](N)C(=O)OCCOC(=O)C[C@H](N)C(=O)OC` [Compound 78a, 4-(2-(S)-2-amino-4-methoxy-4-oxobutyryl)ethyl)1-methyl L-aspartic acid ester hydrochloride]: the “Up-regulation of NS3TP1” value in the assay with NS3TP1 (test concentration 12.5 μM) is listed as “C (C represented that the up-regulation was 1~20%)”. Moreover, the “expression of α-SMA in the cells” value in the assay with α-SMA [2] is listed as “significantly decreased”. The “expression of Collagen I in the cells” value in the assay on collagen I is on record as “significantly decreased”.

One may read the inhibition as how much of the control response was suppressed.
